# Assay results taken from patent US20250064773A1, “TARGETING ERO1 ALPHA WITH AURONE DERIVATIVES” (West Virginia University Board of Governors on behalf of …, priority 2021, published 2025).
# Legend:
# LSD-1 = LSD-1 (Homo sapiens, UniProt O60341); assay: LSD-1 inhibitor screening assay kit (demethylase activity); format: biochemical; conditions: at concentrations ≤25 μM
# Description: T151742 was used to generate a concentration response. […] Experiments performed in triplicates and shown is the mean and standard deviation of three independent experiments.
# HCC4006 = assay: MTT viability assay, HCC4006; format: cell-based; conditions: Homo sapiens, NSCLC (adenocarcinoma), read-out: IC50 Avg ± s.d. (n = 3), HCC4006
# Description: Cell Lines: PC-9 cell line used was obtained from Sigma Aldrich and grown in RPMI 1640 medium with 10% fetal bovine serum and 1% penicillin/streptomycin. HCC4006, U266, MM1.s, and Beas-2B cell lines were obtained from ATCC and cultured in either RPMI 1640 or DMEM with 10% fetal bovine serum and 1% penicillin/streptomycin. All cell lines were also checked for mycoplasma every six months and subjected to short tandem repeat (STR) analysis for cell line validation. CRISPR Cas9: CRISPR Guide RNA 2 targeting ERO1α and CRISPR Guide RNA 4 were purchased from Genscript in the pLentiCRISPR V2 plasmid containing puromycin/ampicillin selection marker. Lentivirus was made from HEK 293T cells by co-transfection with GuideRNA of interest, pVSVG, and pPAX2 plasmids. […] Plate was then read on the BioTek Cytation 5 at 530/590 nm. […] Plate was then read at 570 nm. Treated wells were all compared to DMSO control wells to calculate percent growth inhibition and the IC50 was calculated using GraphPad (log(inhibitor) vs growth inhibition). […] Images were then quantified using ImageJ. […] Cells were aliquoted at 1 million cells per PCR tube in PBS and heated in Bio-Rad T100 thermal cycler at indicated temperatures (RT, 46° C., 48° C., 50° C., 52° C., 54° C., 56°, 58° C., and 60° C.) for 3 minutes and aggregation temperature was determined by western blot analysis. […]
structure (smiles),measurement,setting,value
CN(C)c1ccc(/C=C2\Oc3cc(O)ccc3C2=O)cc1 [Compound T151742],inhibition of LSD-1 demethylase activity,LSD-1,did not inhibit
same,IC50,HCC4006,18.5 ± 14.7 µM
